Experimental findings from ChEMBL document CHEMBL3867461, “Design, synthesis, and evaluation of (2S,4R)-Ketoconazole sulfonamide analogs as potential treatments for Metabolic Syndrome” (Bioorg Med Chem Lett, 2016) are described below.

For orientation: bioavailability means dose-corrected exposure relative to a reference, in per cent. Read a high bioavailability as good availability. As usually defined, the AUC(0-inf) is total exposure, with the tail of the curve extrapolated. A word on the Tmax: it is the time from dosing to the highest level. For orientation: Vd means a proportionality between amount in the body and measured concentration, not a real space. A higher Vd goes with wide distribution into tissue. A word on the Cmax: it is the peak of the concentration-time curve.

Holding throughout (assay type): ADME, organism-based, Cavia porcellus
Common to all, as to conditions: in vivo

Data set [1] can be described thus: Oral bioavailability in Hartley guinea pig at 10 mg/kg.
A short description of data set [2]: AUC (0 to infinity) in Hartley guinea pig at 1 mg/kg, iv administered as single dose. Details: dose 1 mg/kg, route intravenous, time infinity.
A short description of data set [3]: Tmax in Hartley guinea pig at 10 mg/kg, po administered as single dose.
Data set [4] in a line: Volume of distribution in Hartley guinea pig at 1 mg/kg, iv administered as single dose.
A short description of data set [5]: Tmax in Hartley guinea pig at 1 mg/kg, iv administered as single dose.
Data set [6] is described as follows: AUC (0 to infinity) in Hartley guinea pig at 10 mg/kg, po administered as single dose. Details: dose 10 mg/kg, route oral, time infinity.
Data set [7] can be described thus: Cmax in Hartley guinea pig at 1 mg/kg, iv administered as single dose. More on the design: dose 1 mg/kg, route intravenous.
The nature of data set [8]: Cmax in Hartley guinea pig at 10 mg/kg, po administered as single dose. More on the design: dose 10 mg/kg, route oral.

In data set [1], `CCS(=O)(=O)N1CCN(c2ccc(OC[C@@H]3CO[C@@](Cn4ccnc4)(c4ccc(Cl)cc4Cl)O3)cc2)CC1` yielded a bioavailability of 61.4%. Further, the area under the curve AUC(0-inf) was 560 ng·h/mL in data set [2] and 3710 ng·h/mL in data set [6]. Further, the figures for the Tmax in data set [3] and in data set [5] were 70.2 min and 6 min, respectively. The same compound yielded a Vd in data set [4] of 4.4 L/kg. For the same compound, the Cmax came out at 446 ng/mL in data set [7] and 710 ng/mL in data set [8].
For `O=S(=O)(C1CC1)N1CCN(c2ccc(OC[C@@H]3CO[C@@](Cn4ccnc4)(c4ccc(Cl)cc4Cl)O3)cc2)CC1`, the bioavailability in data set [1] was 98.5%. Moreover, the area under the curve AUC(0-inf) in data set [2] is 715 ng·h/mL; in data set [6], 7580 ng·h/mL. The Tmax in data set [3] is 90 min; in data set [5], 4.8 min. The Vd in data set [4] was determined as 2.9 L/kg. For the same compound, the Cmax came to 514 ng/mL in data set [7] and 1560 ng/mL in data set [8].
Consider `N#CCS(=O)(=O)N1CCN(c2ccc(OC[C@@H]3CO[C@@](Cn4ccnc4)(c4ccc(Cl)cc4Cl)O3)cc2)CC1`, for which the bioavailability in data set [1] stood at 39.5%. In addition, the total exposure AUC(0-inf) came to 1160 ng·h/mL in data set [2] and 4600 ng·h/mL in data set [6]. In addition, the Tmax in data set [3] was found to be 40.2 min; in data set [5], 4.8 min. The same compound yielded a Vd in data set [4] of 2.5 L/kg. The Cmax stood at 2090 ng/mL in data set [7] and 1970 ng/mL in data set [8].
Consider `CC(C)S(=O)(=O)N1CCN(c2ccc(OC[C@@H]3CO[C@@](Cn4ccnc4)(c4ccc(Cl)cc4Cl)O3)cc2)CC1`, for which, in data set [1], the bioavailability came to 10.4%. The AUC(0-inf) in data set [2] amounted to 547 ng·h/mL; in data set [6], 571 ng·h/mL. Besides, the Tmax in data set [3] is 40.2 min; in data set [5], 11.4 min. Also, the Vd in data set [4] amounted to 3 L/kg. Besides, the Cmax was determined as 534 ng/mL in data set [7] and 358 ng/mL in data set [8].
